Key:
HS 578T = experiment: NCI-60 anticancer screening (SRB); format: cell-based; settings: Homo sapiens; HS 578T, breast cancer; one dose 10 μM; read-out: Growth Inhibition Percentage (GI %)
EGFR^L858R = EGFR^L858R (Homo sapiens, UniProt P00533, L858R); experiment: biochemical
EGFR^T790M = EGFR^T790M (Homo sapiens, UniProt P00533, T790M); experiment: biochemical
MALME-3M = experiment: NCI-60 anticancer screening (SRB); format: cell-based; settings: Homo sapiens, melanoma, one dose 10 μM, read-out: Growth Inhibition Percentage (GI %)
PC-3 = experiment: NCI-60 anticancer screening (SRB); format: cell-based; settings: Homo sapiens; PC-3, prostate cancer; one dose 10 μM; read-out: Growth Inhibition Percentage (GI %)
HCT-116 = experiment: NCI-60 anticancer screening (SRB); format: cell-based; settings: Homo sapiens; HCT-116, colon cancer; one dose 10 μM; read-out: Growth Inhibition Percentage (GI %)
A498 = experiment: NCI-60 anticancer screening (SRB); format: cell-based; settings: Homo sapiens; A498, renal cancer; one dose 10 μM; read-out: Growth Inhibition Percentage (GI %)
UO-31 = experiment: NCI-60 anticancer screening (SRB); format: cell-based; settings: Homo sapiens; UO-31, renal cancer; one dose 10 μM; read-out: Growth Inhibition Percentage (GI %)
M14 = experiment: NCI-60 anticancer screening (SRB); format: cell-based; settings: Homo sapiens; M14, melanoma; one dose 10 μM; read-out: Growth Inhibition Percentage (GI %)
CCRF-CEM = experiment: NCI-60 anticancer screening (SRB); format: cell-based; settings: Homo sapiens, leukemia, one dose 10 μM, read-out: Growth Inhibition Percentage (GI %)
SK-MEL-28 = experiment: NCI-60 anticancer screening (SRB); format: cell-based; settings: Homo sapiens; SK-MEL-28, melanoma; one dose 10 μM; read-out: Growth Inhibition Percentage (GI %)
EGFR^WT = EGFR^WT (Homo sapiens, UniProt P00533); experiment: EGFR kinase inhibitory assay (HTRF)
NCI-H460 = experiment: NCI-60 anticancer screening (SRB); format: cell-based; settings: Homo sapiens; NCI-H460, NSC lung cancer; one dose 10 μM; read-out: Growth Inhibition Percentage (GI %)
SF-295 = experiment: NCI-60 anticancer screening (SRB); format: cell-based; settings: Homo sapiens; SF-295, CNS cancer; one dose 10 μM; read-out: Growth Inhibition Percentage (GI %)
UACC-62 = experiment: NCI-60 anticancer screening (SRB); format: cell-based; settings: Homo sapiens; UACC-62, melanoma; one dose 10 μM; read-out: Growth Inhibition Percentage (GI %)
IGROV1 = experiment: NCI-60 anticancer screening (SRB); format: cell-based; settings: Homo sapiens, IGROV-1; IGROV1, ovarian cancer; one dose 10 μM; read-out: Growth Inhibition Percentage (GI %)
EKVX = experiment: NCI-60 anticancer screening (SRB); format: cell-based; settings: Homo sapiens, NSC lung cancer, one dose 10 μM, read-out: Growth Inhibition Percentage (GI %)
SF-539 = experiment: NCI-60 anticancer screening (SRB); format: cell-based; settings: Homo sapiens; SF-539, CNS cancer; one dose 10 μM; read-out: Growth Inhibition Percentage (GI %)
NCI/ADR-RES = experiment: NCI-60 anticancer screening (SRB); format: cell-based; settings: Homo sapiens, ovarian cancer, one dose 10 μM, read-out: Growth Inhibition Percentage (GI %)
HT29 = experiment: NCI-60 anticancer screening (SRB); format: cell-based; settings: Homo sapiens, HT-29; HT29, colon cancer; one dose 10 μM; read-out: Growth Inhibition Percentage (GI %)
MCF7 = experiment: NCI-60 anticancer screening (SRB); format: cell-based; settings: Homo sapiens; MCF7, breast cancer; one dose 10 μM; read-out: Growth Inhibition Percentage (GI %)
HOP-92 = experiment: NCI-60 anticancer screening (SRB); format: cell-based; settings: Homo sapiens; HOP-92, NSC lung cancer; one dose 10 μM; read-out: Growth Inhibition Percentage (GI %)
TK-10 = experiment: NCI-60 anticancer screening (SRB); format: cell-based; settings: Homo sapiens; TK-10, renal cancer; one dose 10 μM; read-out: Growth Inhibition Percentage (GI %)
COLO 205 = experiment: NCI-60 anticancer screening (SRB); format: cell-based; settings: Homo sapiens; COLO 205, colon cancer; one dose 10 μM; read-out: Growth Inhibition Percentage (GI %)
786-0 = experiment: NCI-60 anticancer screening (SRB); format: cell-based; settings: Homo sapiens; 786-0, renal cancer; one dose 10 μM; read-out: Growth Inhibition Percentage (GI %)
BT-549 = experiment: NCI-60 anticancer screening (SRB); format: cell-based; settings: Homo sapiens; BT-549, breast cancer; one dose 10 μM; read-out: Growth Inhibition Percentage (GI %)
DU-145 = experiment: NCI-60 anticancer screening (SRB); format: cell-based; settings: Homo sapiens; DU-145, prostate cancer; one dose 10 μM; read-out: Growth Inhibition Percentage (GI %)
MDA-MB-231 = experiment: NCI-60 anticancer screening (SRB); format: cell-based; settings: Homo sapiens; MDA-MB-231, breast cancer; one dose 10 μM; read-out: Growth Inhibition Percentage (GI %)
SN 12C = experiment: NCI-60 anticancer screening (SRB); format: cell-based; settings: Homo sapiens, SN12C; SN 12C, renal cancer; one dose 10 μM; read-out: Growth Inhibition Percentage (GI %)
CAKI-1 = experiment: NCI-60 anticancer screening (SRB); format: cell-based; settings: Homo sapiens; CAKI-1, renal cancer; one dose 10 μM; read-out: Growth Inhibition Percentage (GI %)
U251 = experiment: NCI-60 anticancer screening (SRB); format: cell-based; settings: Homo sapiens, U-251; U251, CNS cancer; one dose 10 μM; read-out: Growth Inhibition Percentage (GI %)

Sequence of EGFR^L858R (P00533 25-1210 L858R): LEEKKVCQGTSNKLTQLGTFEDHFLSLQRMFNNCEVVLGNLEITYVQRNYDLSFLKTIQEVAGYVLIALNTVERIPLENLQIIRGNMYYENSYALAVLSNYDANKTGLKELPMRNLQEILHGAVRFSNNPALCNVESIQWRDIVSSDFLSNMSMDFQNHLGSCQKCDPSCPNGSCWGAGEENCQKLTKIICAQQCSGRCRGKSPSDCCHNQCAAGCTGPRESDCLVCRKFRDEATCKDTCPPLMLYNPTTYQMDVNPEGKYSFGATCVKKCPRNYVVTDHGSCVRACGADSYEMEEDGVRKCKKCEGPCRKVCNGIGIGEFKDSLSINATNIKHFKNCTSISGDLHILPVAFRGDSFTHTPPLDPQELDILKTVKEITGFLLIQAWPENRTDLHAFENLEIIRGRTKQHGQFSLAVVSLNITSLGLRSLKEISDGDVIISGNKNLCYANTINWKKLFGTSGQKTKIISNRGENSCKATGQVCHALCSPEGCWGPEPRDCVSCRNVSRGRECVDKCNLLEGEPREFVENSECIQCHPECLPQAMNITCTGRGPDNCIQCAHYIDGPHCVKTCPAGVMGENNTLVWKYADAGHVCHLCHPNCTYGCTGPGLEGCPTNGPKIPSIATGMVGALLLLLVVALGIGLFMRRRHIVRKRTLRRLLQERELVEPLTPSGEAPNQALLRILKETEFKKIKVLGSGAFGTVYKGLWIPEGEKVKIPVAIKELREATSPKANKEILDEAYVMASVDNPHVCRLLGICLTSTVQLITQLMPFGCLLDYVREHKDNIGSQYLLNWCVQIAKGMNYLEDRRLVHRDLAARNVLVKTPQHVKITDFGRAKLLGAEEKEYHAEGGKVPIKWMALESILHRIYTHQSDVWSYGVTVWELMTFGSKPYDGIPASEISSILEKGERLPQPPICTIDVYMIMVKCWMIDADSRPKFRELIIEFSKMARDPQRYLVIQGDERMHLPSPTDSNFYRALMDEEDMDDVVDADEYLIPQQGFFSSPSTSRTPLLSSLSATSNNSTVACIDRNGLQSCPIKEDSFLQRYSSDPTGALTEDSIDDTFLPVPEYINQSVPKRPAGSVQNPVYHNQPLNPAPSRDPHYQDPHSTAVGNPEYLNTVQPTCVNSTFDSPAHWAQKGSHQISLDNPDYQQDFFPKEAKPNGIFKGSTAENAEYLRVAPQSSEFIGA
Sequence of EGFR^WT (P00533 25-1210): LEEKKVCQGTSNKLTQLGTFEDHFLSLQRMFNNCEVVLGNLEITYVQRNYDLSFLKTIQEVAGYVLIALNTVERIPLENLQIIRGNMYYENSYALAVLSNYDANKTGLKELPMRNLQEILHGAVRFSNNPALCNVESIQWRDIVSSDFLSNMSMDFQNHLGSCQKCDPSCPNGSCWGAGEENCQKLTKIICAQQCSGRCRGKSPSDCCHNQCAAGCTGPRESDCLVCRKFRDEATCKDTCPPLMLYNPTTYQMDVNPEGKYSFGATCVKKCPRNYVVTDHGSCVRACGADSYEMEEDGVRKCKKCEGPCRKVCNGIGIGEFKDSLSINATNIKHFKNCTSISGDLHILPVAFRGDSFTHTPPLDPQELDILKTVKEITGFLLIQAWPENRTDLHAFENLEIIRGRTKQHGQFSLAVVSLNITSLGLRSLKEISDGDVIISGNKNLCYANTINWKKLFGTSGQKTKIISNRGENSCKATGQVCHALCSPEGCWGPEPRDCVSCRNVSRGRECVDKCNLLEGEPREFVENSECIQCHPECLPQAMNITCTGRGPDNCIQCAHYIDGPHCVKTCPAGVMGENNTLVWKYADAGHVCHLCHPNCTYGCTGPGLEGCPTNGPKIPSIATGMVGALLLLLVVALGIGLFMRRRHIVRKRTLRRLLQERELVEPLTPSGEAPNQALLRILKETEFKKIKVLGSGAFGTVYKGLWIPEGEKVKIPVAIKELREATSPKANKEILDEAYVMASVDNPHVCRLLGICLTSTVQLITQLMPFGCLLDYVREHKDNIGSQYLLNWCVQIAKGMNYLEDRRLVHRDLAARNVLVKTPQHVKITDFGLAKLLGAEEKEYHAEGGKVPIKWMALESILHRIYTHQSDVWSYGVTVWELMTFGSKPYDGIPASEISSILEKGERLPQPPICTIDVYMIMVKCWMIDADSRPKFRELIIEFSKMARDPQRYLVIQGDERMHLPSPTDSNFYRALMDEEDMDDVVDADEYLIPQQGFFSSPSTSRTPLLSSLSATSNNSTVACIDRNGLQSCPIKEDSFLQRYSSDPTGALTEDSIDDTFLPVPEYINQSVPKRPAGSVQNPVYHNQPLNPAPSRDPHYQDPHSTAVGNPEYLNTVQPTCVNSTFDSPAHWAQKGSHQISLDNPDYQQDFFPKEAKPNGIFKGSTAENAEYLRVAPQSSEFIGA
Sequence of EGFR^T790M (P00533 25-1210 T790M): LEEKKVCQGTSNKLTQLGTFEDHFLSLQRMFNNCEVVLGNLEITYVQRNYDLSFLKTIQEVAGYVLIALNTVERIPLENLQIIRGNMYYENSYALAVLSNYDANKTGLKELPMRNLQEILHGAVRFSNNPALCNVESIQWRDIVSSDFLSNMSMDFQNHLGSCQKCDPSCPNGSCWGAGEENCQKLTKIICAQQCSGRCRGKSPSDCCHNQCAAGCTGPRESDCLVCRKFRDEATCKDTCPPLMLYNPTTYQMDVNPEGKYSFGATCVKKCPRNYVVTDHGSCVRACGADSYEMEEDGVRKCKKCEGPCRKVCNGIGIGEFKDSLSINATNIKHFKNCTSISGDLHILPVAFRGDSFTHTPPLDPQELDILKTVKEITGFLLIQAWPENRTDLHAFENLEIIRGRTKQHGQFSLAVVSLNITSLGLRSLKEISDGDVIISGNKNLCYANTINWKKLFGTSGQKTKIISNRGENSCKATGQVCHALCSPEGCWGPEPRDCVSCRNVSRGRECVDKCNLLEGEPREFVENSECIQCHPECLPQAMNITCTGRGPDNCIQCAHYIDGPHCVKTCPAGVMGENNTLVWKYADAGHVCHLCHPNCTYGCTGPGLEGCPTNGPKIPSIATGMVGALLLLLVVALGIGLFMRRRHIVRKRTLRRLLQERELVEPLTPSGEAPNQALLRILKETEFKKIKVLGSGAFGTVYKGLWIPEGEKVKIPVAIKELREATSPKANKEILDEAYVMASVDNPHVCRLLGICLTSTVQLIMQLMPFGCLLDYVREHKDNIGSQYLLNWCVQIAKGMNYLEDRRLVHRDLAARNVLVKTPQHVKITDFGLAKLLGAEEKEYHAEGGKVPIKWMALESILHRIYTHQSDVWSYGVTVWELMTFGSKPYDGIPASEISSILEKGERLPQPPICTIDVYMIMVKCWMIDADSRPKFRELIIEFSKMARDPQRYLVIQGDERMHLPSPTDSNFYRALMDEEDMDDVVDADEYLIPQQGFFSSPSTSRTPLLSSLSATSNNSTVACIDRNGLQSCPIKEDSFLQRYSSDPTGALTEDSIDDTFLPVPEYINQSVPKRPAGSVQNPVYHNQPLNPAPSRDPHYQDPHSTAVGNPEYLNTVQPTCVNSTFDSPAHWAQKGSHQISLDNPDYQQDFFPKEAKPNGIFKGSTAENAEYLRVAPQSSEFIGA

Q: How did the inhibition at 10 µM (HS 578T) turn out when `CCOC(=O)C1=C(N)N(c2ccc(Cl)cc2)C2=C(C(=O)CC(C)(C)C2)C1c1ccc(Cl)cc1` (racemic) [8e, (±)-Ethyl 2-amino-1,4-bis (4-chlorophenyl)-7,7-dimethyl-5-oxo-1,4,5,6,7,8-hexahydroquinoline-3-carboxylate] was run?
A: 44%

Q: What about the IC50 (EGFR^L858R) of the same compound?
A: 351 ± 2 nM

Q: And the IC50 (EGFR^T790M)?
A: 693 ± 5 nM

Q: What about the inhibition at 10 µM (MALME-3M) of the same compound?
A: 39%

Q: And the inhibition at 10 µM (PC-3)?
A: 58%

Q: What about the inhibition at 10 µM (HCT-116) of the same compound?
A: 45%

Q: And the inhibition at 10 µM (A498)?
A: < 10%

Q: And the inhibition at 10 µM (UO-31)?
A: 34%

Q: And the inhibition at 10 µM (M14)?
A: 49%

Q: What about the inhibition at 10 µM (CCRF-CEM) of the same compound?
A: 61%

Q: What about the inhibition at 10 µM (SK-MEL-28) of the same compound?
A: 26%

Q: What about the IC50 (EGFR^WT) of the same compound?
A: 300 ± 120 nM

Q: What about the inhibition at 10 µM (NCI-H460) of the same compound?
A: 59%

Q: And the inhibition at 10 µM (SF-295)?
A: 33%

Q: What about the inhibition at 10 µM (UACC-62) of the same compound?
A: 28%

Q: What about the inhibition at 10 µM (IGROV1) of the same compound?
A: 12%

Q: And the inhibition at 10 µM (EKVX)?
A: 33%

Q: And the inhibition at 10 µM (SF-539)?
A: 26%

Q: What about the inhibition at 10 µM (NCI/ADR-RES) of the same compound?
A: 32%

Q: What about the inhibition at 10 µM (HT29) of the same compound?
A: 46%

Q: What about the inhibition at 10 µM (MCF7) of the same compound?
A: 56%

Q: What about the inhibition at 10 µM (HOP-92) of the same compound?
A: < 10%

Q: And the inhibition at 10 µM (TK-10)?
A: 11%

Q: And the inhibition at 10 µM (COLO 205)?
A: 53%

Q: What about the inhibition at 10 µM (786-0) of the same compound?
A: 23%

Q: What about the inhibition at 10 µM (BT-549) of the same compound?
A: 21%

Q: What about the inhibition at 10 µM (DU-145) of the same compound?
A: 12%

Q: What about the inhibition at 10 µM (MDA-MB-231) of the same compound?
A: 24%

Q: What about the inhibition at 10 µM (SN 12C) of the same compound?
A: < 10%

Q: And the inhibition at 10 µM (CAKI-1)?
A: 19%

Q: And the inhibition at 10 µM (U251)?
A: 31%

Q: For `CCOC(=O)C1=C(N)N(c2ccc(Cl)cc2)C2=C(C(=O)CC(C)(C)C2)C1c1cccc(Cl)c1Cl` (racemic) [10b, (±)-Ethyl 2-amino-1–(4-chorophenyl)-4–(2,3-dichlorophenyl)-7,7-dimethyl-5-oxo-1-phenyl-1,4,5,6,7,8-hexahydroquinoline-3-carboxylate], which inhibition at 10 µM (HS 578T) is on record?
A: < 10%

Q: And the IC50 (EGFR^L858R)?
A: 878 ± 6 nM

Q: What about the IC50 (EGFR^T790M) of the same compound?
A: 954 ± 8 nM

Q: And the inhibition at 10 µM (MALME-3M)?
A: 20%

Q: And the inhibition at 10 µM (PC-3)?
A: 76%

Q: What about the inhibition at 10 µM (HCT-116) of the same compound?
A: 71%

Q: And the inhibition at 10 µM (A498)?
A: < 10%

Q: What about the inhibition at 10 µM (UO-31) of the same compound?
A: 49%

Q: And the inhibition at 10 µM (M14)?
A: 16%

Q: What about the inhibition at 10 µM (CCRF-CEM) of the same compound?
A: 64%

Q: And the inhibition at 10 µM (SK-MEL-28)?
A: 16%

Q: And the IC50 (EGFR^WT)?
A: 205 ± 90 nM

Q: And the inhibition at 10 µM (NCI-H460)?
A: 53%

Q: And the inhibition at 10 µM (SF-295)?
A: 26%

Q: And the inhibition at 10 µM (UACC-62)?
A: 34%

Q: What about the inhibition at 10 µM (IGROV1) of the same compound?
A: < 10%

Q: And the inhibition at 10 µM (EKVX)?
A: 58%

Q: And the inhibition at 10 µM (SF-539)?
A: 22%

Q: What about the inhibition at 10 µM (NCI/ADR-RES) of the same compound?
A: 32%

Q: And the inhibition at 10 µM (HT29)?
A: 32%

Q: And the inhibition at 10 µM (MCF7)?
A: 52%

Q: And the inhibition at 10 µM (HOP-92)?
A: 30%

Q: What about the inhibition at 10 µM (TK-10) of the same compound?
A: < 10%

Q: And the inhibition at 10 µM (COLO 205)?
A: 41%

Q: What about the inhibition at 10 µM (786-0) of the same compound?
A: 22%

Q: What about the inhibition at 10 µM (BT-549) of the same compound?
A: 31%

Q: What about the inhibition at 10 µM (DU-145) of the same compound?
A: 18%

Q: And the inhibition at 10 µM (MDA-MB-231)?
A: 33%

Q: What about the inhibition at 10 µM (SN 12C) of the same compound?
A: 35%

Q: What about the inhibition at 10 µM (CAKI-1) of the same compound?
A: 53%

Q: And the inhibition at 10 µM (U251)?
A: 22%

Q: With `CCOC(=O)C1=C(N)N(c2ccccc2)C2=C(C(=O)CC(C)(C)C2)C1c1cccc(Cl)c1Cl` (racemic) [10a, (±)-Ethyl 2-amino-4–(2,3-dichlorophenyl)-7,7-dimethyl-5-oxo-1-phenyl-1,4,5,6,7,8-hexahydroquinoline-3-carboxylate] as the compound, how does the inhibition at 10 µM (HS 578T) read?
A: < 10%

Q: And the IC50 (EGFR^L858R)?
A: 490 ± 3 nM

Q: And the IC50 (EGFR^T790M)?
A: 532 ± 4 nM

Q: What about the inhibition at 10 µM (MALME-3M) of the same compound?
A: 19%

Q: What about the inhibition at 10 µM (PC-3) of the same compound?
A: 65%

Q: What about the inhibition at 10 µM (HCT-116) of the same compound?
A: 60%

Q: And the inhibition at 10 µM (A498)?
A: < 10%

Q: What about the inhibition at 10 µM (UO-31) of the same compound?
A: 25%

Q: And the inhibition at 10 µM (M14)?
A: 12%

Q: What about the inhibition at 10 µM (CCRF-CEM) of the same compound?
A: 45%

Q: And the inhibition at 10 µM (SK-MEL-28)?
A: < 10%

Q: And the IC50 (EGFR^WT)?
A: 145 ± 30 nM

Q: What about the inhibition at 10 µM (NCI-H460) of the same compound?
A: 39%

Q: What about the inhibition at 10 µM (SF-295) of the same compound?
A: 46%

Q: What about the inhibition at 10 µM (UACC-62) of the same compound?
A: 44%

Q: What about the inhibition at 10 µM (IGROV1) of the same compound?
A: 16%

Q: What about the inhibition at 10 µM (EKVX) of the same compound?
A: 42%

Q: What about the inhibition at 10 µM (SF-539) of the same compound?
A: 67%

Q: And the inhibition at 10 µM (NCI/ADR-RES)?
A: 49%

Q: What about the inhibition at 10 µM (HT29) of the same compound?
A: 27%

Q: What about the inhibition at 10 µM (MCF7) of the same compound?
A: 40%

Q: What about the inhibition at 10 µM (HOP-92) of the same compound?
A: 101%

Q: And the inhibition at 10 µM (TK-10)?
A: < 10%

Q: What about the inhibition at 10 µM (COLO 205) of the same compound?
A: 19%

Q: And the inhibition at 10 µM (786-0)?
A: 42%

Q: And the inhibition at 10 µM (BT-549)?
A: 31%

Q: And the inhibition at 10 µM (DU-145)?
A: 19%

Q: What about the inhibition at 10 µM (MDA-MB-231) of the same compound?
A: 40%

Q: What about the inhibition at 10 µM (SN 12C) of the same compound?
A: 37%

Q: And the inhibition at 10 µM (CAKI-1)?
A: 53%

Q: And the inhibition at 10 µM (U251)?
A: 45%
